According to patent US11267861B2, “Peptide-oligourea foldamer compounds and methods of their use” (UREKA SARL, priority 2016, dated 2022):
Converted amounts (≈) assume the structure as drawn. Numbered stars: 1 amine (or outer) side, 2 acyl side, 3 side chain; on linkers, the order of the positions; unused ones are H or OH. Bridge positions count the residues as written; N and C are the ends. Square brackets hold non-standard residues; d marks the D form. Peptide text beside a SMILES is read from it. I, II: the chains in the order shown. X1 = C[C@@H](CNC(=O)[*:1])N[*:2]; Nle = CCCC[C@H](N)C(=O)O

Experiments:
[1] = Solubility of glucagon analogs (UV absorbance); type: physicochemical; conditions: for solubility: 0.01M HCl solution adjusted to pH 7 with Na2HPO4, pH 7, pH adjusted to 7 with Na2HPO4, incubated overnight at 4° C.; for ratio (solubility relative to reference compound 16): relative to compound 16;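 for all read-outs here: peptide stock at 3 mg/ml in 0.01 M HCl, absorbance at 280 nm read before neutralization and again on the diluted supernatant after centrifugation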
Experimental: A solution of 3 mg/ml of glucagon (or analog) was prepared in a 0.01M HCl solution. Then 0.1 ml of the stock solution was diluted to 1 ml with HCl (0.01M) and the UV absorbance measured (to 280 nm) with nanodrop UV spectrometer. The pH of the remaining stock solution was adjusted to 7 using Na2HPO4, and the solution was incubated overnight at 4° C. The solution was then centrifuged three times (5 minutes, 4000 rotations per minute), 0.1 ml of the supernatant was removed and diluted to 1 ml with HCl solution (0.01M).
The final UV absorbance was measured.

human glucagon receptor = biological target: T1, human glucagon receptor (Homo sapiens, UniProt P47871); assay: Glucagon functional assay: agonist activity by cAMP production (HTRF) in transfected CHO cells; type: cell-based; conditions: for EC50: cAMP production, transfected CHO cells, 10 minutes at 37° C.
T1 construct: expressed in transfected cells; host or cells: CHO cells
T1 sequence (P47871 26-477): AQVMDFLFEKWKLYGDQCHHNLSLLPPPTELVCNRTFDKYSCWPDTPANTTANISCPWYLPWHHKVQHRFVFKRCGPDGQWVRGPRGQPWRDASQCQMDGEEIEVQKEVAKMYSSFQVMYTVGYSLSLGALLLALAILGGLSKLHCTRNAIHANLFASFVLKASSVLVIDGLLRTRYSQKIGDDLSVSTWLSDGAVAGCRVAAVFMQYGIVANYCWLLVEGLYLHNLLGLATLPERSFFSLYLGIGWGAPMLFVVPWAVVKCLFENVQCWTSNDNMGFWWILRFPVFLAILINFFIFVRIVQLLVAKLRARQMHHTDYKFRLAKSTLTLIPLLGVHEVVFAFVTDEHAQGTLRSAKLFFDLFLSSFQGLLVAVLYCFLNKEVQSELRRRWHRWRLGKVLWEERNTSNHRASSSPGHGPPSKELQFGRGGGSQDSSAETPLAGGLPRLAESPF
Experimental: Functional Assay to Examine Bioactivity of Glucagon Receptor Agonists. Evaluation of the agonist activity of compounds at the human glucagon receptor expressed in transfected CHO cells was examined by measuring their effects on cAMP production using the HTRF detection method. […] For stimulated control measurement, separate assay wells contain 100 nM glucagon were utilized.
Following incubation, the cells were lysed and the fluorescence acceptor (D2-labeled cAMP) and fluorescence donor (anti-cAMP antibody labeled with europium cryptate) were added. […] The results are expressed as a percent of the control response to 100 nM glucagon. The standard reference agonist is glucagon, which was tested in each experiment at several concentrations to generate a concentration-response curve from which its EC50 value was calculated.
HTRF (Homogeneous Time-Resolved Fluorescence) principle. The HTRF technology is based on time resolved fluorescence energy transfer (TR-FRET), which occurs between long-lived fluorophore Europium or Terbium Cryptates, and EuK or Tb respectively, as a donor and the allophycocyanin XL665, d2 or Red as acceptor. Many compounds and proteins present in biological fluids or serum are naturally fluorescent, and the use of conventional, prompt fluorescence leads to serious limitations in assay sensitivity. The use of long-lived fluorophore combined with time-resolved detection (a delay between excitation and emission detection) minimizes prompt fluorescence interference.

SMILES	solubility [1]	ratio (solubility relative to reference compound 16) [1]	EC50 (human glucagon receptor)	% bioactivity of reference, GCG-R (human glucagon receptor; Reference Compound 16)
CC(C)C[C@H](NC(=O)[C@H](Cc1ccc(O)cc1)NC(=O)[C@H](CCCCN)NC(=O)[C@H](CO)NC(=O)[C@H](Cc1ccc(O)cc1)NC(=O)[C@H](CC(=O)O)NC(=O)[C@H](CO)NC(=O)[C@@H](NC(=O)[C@H](Cc1ccccc1)NC(=O)[C@@H](NC(=O)CNC(=O)[C@H](CCC(N)=O)NC(=O)[C@H](CO)NC(=O)[C@@H](N)Cc1c[nH]cn1)[C@@H](C)O)[C@@H](C)O)C(=O)N[C@@H](CC(=O)O)C(=O)N[C@@H](CO)C(=O)N[C@@H](CCCNC(=N)N)C(=O)N[C@@H](CCCNC(=N)N)C(=O)N[C@@H](C)C(=O)N[C@@H](CCC(N)=O)C(=O)N[C@@H](CC(=O)O)C(=O)N[C@@H](Cc1ccccc1)C(=O)N[C@H](C(=O)N[C@@H](CCC(N)=O)C(=O)N[C@@H](Cc1c[nH]c2ccccc12)C(=O)N[C@@H](CC(C)C)C(=O)N[C@@H](C)CNC(=O)N[C@@H](CC(N)=O)C(=O)N[C@H](C(=O)O)[C@@H](C)O)C(C)C [Compound 34]	860 µg/mL (≈ 249 µM)	3.4	2.5 nM	
CCCC[C@H](NC(=O)[C@H](CC(C)C)NC(=O)[C@H](Cc1c[nH]c2ccccc12)NC(=O)[C@H](CCC(N)=O)NC(=O)[C@@H](NC(=O)[C@H](Cc1ccccc1)NC(=O)[C@H](CC(=O)O)NC(=O)[C@H](CCC(N)=O)NC(=O)[C@H](C)NC(=O)[C@H](CCCNC(=N)N)NC(=O)[C@H](CCCNC(=N)N)NC(=O)[C@H](CO)NC(=O)[C@H](CC(=O)O)NC(=O)[C@H](CC(C)C)NC(=O)[C@H](Cc1ccc(O)cc1)NC(=O)[C@H](CCCCN)NC(=O)[C@H](CO)NC(=O)[C@H](Cc1ccc(O)cc1)NC(=O)[C@H](CC(=O)O)NC(=O)[C@H](CO)NC(=O)[C@@H](NC(=O)[C@H](Cc1ccccc1)NC(=O)[C@@H](NC(=O)CNC(=O)[C@H](CCC(N)=O)NC(=O)[C@H](CO)NC(=O)[C@@H](N)Cc1c[nH]cn1)[C@@H](C)O)[C@@H](C)O)C(C)C)C(=O)N[C@@H](C)CNC(=O)N[C@H](C(=O)O)[C@@H](C)O [Compound 35]			0.44 nM	
CCCC[C@H](NC(=O)[C@H](CC(C)C)NC(=O)[C@H](Cc1c[nH]c2ccccc12)NC(=O)[C@H](CCC(N)=O)NC(=O)[C@@H](NC(=O)[C@H](Cc1ccccc1)NC(=O)[C@H](CC(=O)O)NC(=O)[C@H](CCC(N)=O)NC(=O)[C@H](C)NC(=O)[C@H](CCCNC(=N)N)NC(=O)[C@H](CCCNC(=N)N)NC(=O)[C@H](CO)NC(=O)[C@H](CC(=O)O)NC(=O)[C@H](CC(C)C)NC(=O)[C@H](Cc1ccc(O)cc1)NC(=O)[C@H](CCCCN)NC(=O)[C@H](CO)NC(=O)[C@H](Cc1ccc(O)cc1)NC(=O)[C@H](CC(=O)O)NC(=O)[C@H](CO)NC(=O)[C@@H](NC(=O)[C@H](Cc1ccccc1)NC(=O)[C@@H](NC(=O)CNC(=O)[C@H](CCC(N)=O)NC(=O)[C@H](CO)NC(=O)[C@@H](N)Cc1c[nH]cn1)[C@@H](C)O)[C@@H](C)O)C(C)C)C(=O)N[C@@H](CC(N)=O)C(=O)N[C@@H](C)CNC(N)=O [Compound 36]			0.026 nM	246%
CCCC[C@H](NC(=O)[C@H](CC(C)C)NC(=O)[C@H](Cc1c[nH]c2ccccc12)NC(=O)[C@H](CCC(N)=O)NC(=O)[C@@H](NC(=O)[C@H](Cc1ccccc1)NC(=O)[C@H](CC(=O)O)NC(=O)[C@H](CCC(N)=O)NC(=O)[C@H](C)NC(=O)[C@H](CCCNC(=N)N)NC(=O)[C@H](CCCNC(=N)N)NC(=O)[C@H](CO)NC(=O)[C@H](CC(=O)O)NC(=O)NC[C@H](C)NC(=O)[C@H](Cc1ccc(O)cc1)NC(=O)[C@H](CCCCN)NC(=O)[C@H](CO)NC(=O)[C@H](Cc1ccc(O)cc1)NC(=O)[C@H](CC(=O)O)NC(=O)[C@H](CO)NC(=O)[C@@H](NC(=O)[C@H](Cc1ccccc1)NC(=O)[C@@H](NC(=O)CNC(=O)[C@H](CCC(N)=O)NC(=O)[C@H](CO)NC(=O)[C@@H](N)Cc1c[nH]cn1)[C@@H](C)O)[C@@H](C)O)C(C)C)C(=O)N[C@@H](CC(N)=O)C(=O)N[C@H](C(=O)O)[C@@H](C)O [Compound 51] (I: DSRRAQDFVQWL[Nle]NT-OH / II: H-HSQGTFTSDYSKY; linker I:N-II:C via X1; C-terminus assumed)	560 µg/mL (≈ 162 µM)	2.2	68 nM	
CCCC[C@H](NC(=O)[C@H](CC(C)C)NC(=O)[C@H](Cc1c[nH]c2ccccc12)NC(=O)[C@H](CCC(N)=O)NC(=O)[C@@H](NC(=O)[C@H](Cc1ccccc1)NC(=O)[C@H](CC(=O)O)NC(=O)[C@H](CCC(N)=O)NC(=O)[C@H](C)NC(=O)[C@H](CCCNC(=N)N)NC(=O)[C@H](CCCNC(=N)N)NC(=O)NC[C@H](C)NC(=O)[C@H](CC(=O)O)NC(=O)[C@H](CC(C)C)NC(=O)[C@H](Cc1ccc(O)cc1)NC(=O)[C@H](CCCCN)NC(=O)[C@H](CO)NC(=O)[C@H](Cc1ccc(O)cc1)NC(=O)[C@H](CC(=O)O)NC(=O)[C@H](CO)NC(=O)[C@@H](NC(=O)[C@H](Cc1ccccc1)NC(=O)[C@@H](NC(=O)CNC(=O)[C@H](CCC(N)=O)NC(=O)[C@H](CO)NC(=O)[C@@H](N)Cc1c[nH]cn1)[C@@H](C)O)[C@@H](C)O)C(C)C)C(=O)N[C@@H](CC(N)=O)C(=O)N[C@H](C(=O)O)[C@@H](C)O [Compound 52]	490 µg/mL (≈ 141 µM)	1.9	34 nM	
CCCC[C@H](NC(=O)[C@H](CC(C)C)NC(=O)[C@H](Cc1c[nH]c2ccccc12)NC(=O)[C@H](CCC(N)=O)NC(=O)[C@@H](NC(=O)[C@H](Cc1ccccc1)NC(=O)[C@H](CC(=O)O)NC(=O)[C@H](CCC(N)=O)NC(=O)[C@H](C)NC(=O)[C@H](CCCNC(=N)N)NC(=O)NC[C@H](C)NC(=O)[C@H](CO)NC(=O)[C@H](CC(=O)O)NC(=O)[C@H](CC(C)C)NC(=O)[C@H](Cc1ccc(O)cc1)NC(=O)[C@H](CCCCN)NC(=O)[C@H](CO)NC(=O)[C@H](Cc1ccc(O)cc1)NC(=O)[C@H](CC(=O)O)NC(=O)[C@H](CO)NC(=O)[C@@H](NC(=O)[C@H](Cc1ccccc1)NC(=O)[C@@H](NC(=O)CNC(=O)[C@H](CCC(N)=O)NC(=O)[C@H](CO)NC(=O)[C@@H](N)Cc1c[nH]cn1)[C@@H](C)O)[C@@H](C)O)C(C)C)C(=O)N[C@@H](CC(N)=O)C(=O)N[C@H](C(=O)O)[C@@H](C)O [Compound 53]	580 µg/mL (≈ 170 µM)	2.3	0.67 nM	
CCCC[C@H](NC(=O)[C@H](CC(C)C)NC(=O)[C@H](Cc1c[nH]c2ccccc12)NC(=O)[C@H](CCC(N)=O)NC(=O)[C@@H](NC(=O)[C@H](Cc1ccccc1)NC(=O)[C@H](CC(=O)O)NC(=O)[C@H](CCC(N)=O)NC(=O)NC[C@H](C)NC(=O)[C@H](CCCNC(=N)N)NC(=O)[C@H](CCCNC(=N)N)NC(=O)[C@H](CO)NC(=O)[C@H](CC(=O)O)NC(=O)[C@H](CC(C)C)NC(=O)[C@H](Cc1ccc(O)cc1)NC(=O)[C@H](CCCCN)NC(=O)[C@H](CO)NC(=O)[C@H](Cc1ccc(O)cc1)NC(=O)[C@H](CC(=O)O)NC(=O)[C@H](CO)NC(=O)[C@@H](NC(=O)[C@H](Cc1ccccc1)NC(=O)[C@@H](NC(=O)CNC(=O)[C@H](CCC(N)=O)NC(=O)[C@H](CO)NC(=O)[C@@H](N)Cc1c[nH]cn1)[C@@H](C)O)[C@@H](C)O)C(C)C)C(=O)N[C@@H](CC(N)=O)C(=O)N[C@H](C(=O)O)[C@@H](C)O [Compound 54]	630 µg/mL (≈ 180 µM)	2.5	32 nM	
CCCC[C@H](NC(=O)[C@H](CC(C)C)NC(=O)[C@H](Cc1c[nH]c2ccccc12)NC(=O)[C@H](CCC(N)=O)NC(=O)NC[C@H](C)NC(=O)[C@H](Cc1ccccc1)NC(=O)[C@H](CC(=O)O)NC(=O)[C@H](CCC(N)=O)NC(=O)[C@H](C)NC(=O)[C@H](CCCNC(=N)N)NC(=O)[C@H](CCCNC(=N)N)NC(=O)[C@H](CO)NC(=O)[C@H](CC(=O)O)NC(=O)[C@H](CC(C)C)NC(=O)[C@H](Cc1ccc(O)cc1)NC(=O)[C@H](CCCCN)NC(=O)[C@H](CO)NC(=O)[C@H](Cc1ccc(O)cc1)NC(=O)[C@H](CC(=O)O)NC(=O)[C@H](CO)NC(=O)[C@@H](NC(=O)[C@H](Cc1ccccc1)NC(=O)[C@@H](NC(=O)CNC(=O)[C@H](CCC(N)=O)NC(=O)[C@H](CO)NC(=O)[C@@H](N)Cc1c[nH]cn1)[C@@H](C)O)[C@@H](C)O)C(=O)N[C@@H](CC(N)=O)C(=O)N[C@H](C(=O)O)[C@@H](C)O [Compound 55]	1390 µg/mL (≈ 401 µM)	5.5	34 nM	
CCCC[C@H](NC(=O)[C@H](CC(C)C)NC(=O)[C@H](Cc1c[nH]c2ccccc12)NC(=O)NC[C@H](C)NC(=O)[C@@H](NC(=O)[C@H](Cc1ccccc1)NC(=O)[C@H](CC(=O)O)NC(=O)[C@H](CCC(N)=O)NC(=O)[C@H](C)NC(=O)[C@H](CCCNC(=N)N)NC(=O)[C@H](CCCNC(=N)N)NC(=O)[C@H](CO)NC(=O)[C@H](CC(=O)O)NC(=O)[C@H](CC(C)C)NC(=O)[C@H](Cc1ccc(O)cc1)NC(=O)[C@H](CCCCN)NC(=O)[C@H](CO)NC(=O)[C@H](Cc1ccc(O)cc1)NC(=O)[C@H](CC(=O)O)NC(=O)[C@H](CO)NC(=O)[C@@H](NC(=O)[C@H](Cc1ccccc1)NC(=O)[C@@H](NC(=O)CNC(=O)[C@H](CCC(N)=O)NC(=O)[C@H](CO)NC(=O)[C@@H](N)Cc1c[nH]cn1)[C@@H](C)O)[C@@H](C)O)C(C)C)C(=O)N[C@@H](CC(N)=O)C(=O)N[C@H](C(=O)O)[C@@H](C)O [Compound 56]	700 µg/mL (≈ 204 µM)	2.8	0.072 nM	
